Assay results as given in PubChem BioAssay AID258 (DTP/NCI, 2004).
Several values for one entry are separate records, joined by “and”; a condition that tells them apart may be missing. Equal entries are not always repeated. Inconclusive results and toxic doses are left out.

System: CD2F1 mice, L1210 leukemia sc, survival T/C
Assay: NCI In Vivo Anticancer Drug Screen. Data for tumor model L1210 Leukemia (subcutaneous) in CD2F1 (CDF1) mice
Conditions: endpoint: median survival time, higher = longer survival
In short: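 Transplantable tumor-bearing mice were treated with compound; survival or tumor size measured and expressed as treated-group value (T) divided by vehicle-treated control value (C).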

[1] = dose: 12.5 mg/kg/injection, schedule: Q01DX009 (ip), vehicle: Klucel (hydroxypropylcellulose) (HPC)
[2] = dose: 25.0 mg/kg/injection, schedule: Q01DX009 (ip), vehicle: Klucel (hydroxypropylcellulose) (HPC)
[3] = dose: 50.0 mg/kg/injection, schedule: Q01DX009 (ip), vehicle: Klucel (hydroxypropylcellulose) (HPC)

## S=c1nc[nH]c2nc[nH]c12
dose: 5.0 mg/kg/injection, schedule: Q01DX009 (sc), vehicle: saline with Tween-80
  T/C: 113 % of control
dose: 5.0 mg/kg/injection, schedule: Q## X Z (sc), vehicle: other
  T/C: 111 % of control
dose: 8.4 mg/kg/injection, schedule: Q01DX Z (sc), vehicle: methylcellulose (MC)
  T/C: 100 % of control
dose: 14.0 mg/kg/injection, schedule: Q01DX Z (ip), vehicle: other
  T/C: 100 % of control
dose: 14.0 mg/kg/injection, schedule: Q01DX Z (sc), vehicle: methylcellulose (MC)
  T/C: 100 % of control
dose: 14.0 mg/kg/injection, schedule: Q01DX Z (sc), vehicle: other
  T/C: 100 % of control
dose: 14.0 mg/kg/injection, schedule: Q## X Z (sc), vehicle: other
  T/C: 172 % of control
dose: 14.0 mg/kg/injection, schedule: Q#A X Z (sc), vehicle: other
  T/C: 111 % of control
dose: 20.0 mg/kg/injection, schedule: Q01DX009 (sc), vehicle: saline with Tween-80
  T/C: 167 % of control
dose: 23.0 mg/kg/injection, schedule: Q01DX Z (ip), vehicle: other
  T/C: 100 % of control
dose: 23.0 mg/kg/injection, schedule: Q01DX Z (oral), vehicle: other
  T/C: 110 % of control
dose: 23.0 mg/kg/injection, schedule: Q01DX Z (sc), vehicle: methylcellulose (MC)
  T/C: 109 % of control and 110 % of control
dose: 23.0 mg/kg/injection, schedule: Q02DX Z (sc), vehicle: other
  T/C: 100 % of control
dose: 23.0 mg/kg/injection, schedule: Q## X Z (sc), vehicle: other
  T/C: 161 % of control
dose: 23.0 mg/kg/injection, schedule: Q#A X Z (sc), vehicle: other
  T/C: 105 % of control
dose: 25.0 mg/kg/injection, schedule: Q01DX Z (sc), vehicle: other
  T/C: 112 % of control
dose: 39.0 mg/kg/injection, schedule: Q01DX001 (sc), vehicle: other
  T/C: 100 % of control
dose: 39.0 mg/kg/injection, schedule: Q01DX Z (ip), vehicle: other
  T/C: 100 % of control
dose: 39.0 mg/kg/injection, schedule: Q01DX Z (oral), vehicle: other
  T/C: 110 % of control
dose: 39.0 mg/kg/injection, schedule: Q02DX Z (sc), vehicle: other
  T/C: 111 % of control
dose: 39.0 mg/kg/injection, schedule: Q07DX Z (sc), vehicle: other
  T/C: 111 % of control
dose: 39.0 mg/kg/injection, schedule: Q#A X Z (sc), vehicle: other
  T/C: 166 % of control
dose: 40.0 mg/kg/injection, schedule: Q01DX009 (sc), vehicle: saline with Tween-80
  T/C: 151 % of control
dose: 46.8 mg/kg/injection, schedule: Q01DX Z (sc), vehicle: other
  T/C: 122 % of control
dose: 50.0 mg/kg/injection, schedule: Q01DX Z (sc), vehicle: other
  T/C: 175 % of control
dose: 65.0 mg/kg/injection, schedule: Q01DX001 (sc), vehicle: other
  T/C: 105 % of control
dose: 65.0 mg/kg/injection, schedule: Q01DX Z (sc), vehicle: methylcellulose (MC)
  T/C: 165 % of control
dose: 65.0 mg/kg/injection, schedule: Q02DX Z (sc), vehicle: other
  T/C: 111 % of control
dose: 65.0 mg/kg/injection, schedule: Q07DX Z (sc), vehicle: other
  T/C: 111 % of control
dose: 65.0 mg/kg/injection, schedule: Q## X Z (sc), vehicle: other
  T/C: 111 % of control
dose: 65.0 mg/kg/injection, schedule: Q#A X Z (sc), vehicle: other
  T/C: 177 % of control
dose: 78.0 mg/kg/injection, schedule: Q01DX Z (sc), vehicle: other
  T/C: 194 % of control
dose: 80.0 mg/kg/injection, schedule: Q01DX009 (sc), vehicle: saline with Tween-80
  T/C: 110 % of control
dose: 100.0 mg/kg/injection, schedule: Q01DX Z (sc), vehicle: other
  T/C: 162 % of control
dose: 108.0 mg/kg/injection, schedule: Q01DX001 (sc), vehicle: other
  T/C: 122 % of control
dose: 108.0 mg/kg/injection, schedule: Q01DX Z (ip), vehicle: other
  T/C: 175 % of control
dose: 108.0 mg/kg/injection, schedule: Q01DX Z (oral), vehicle: other
  T/C: 170 % of control
dose: 108.0 mg/kg/injection, schedule: Q02DX Z (sc), vehicle: other
  T/C: 200 % of control
dose: 108.0 mg/kg/injection, schedule: Q07DX Z (sc), vehicle: other
  T/C: 122 % of control
dose: 108.0 mg/kg/injection, schedule: Q## X Z (sc), vehicle: other
  T/C: 111 % of control
dose: 130.0 mg/kg/injection, schedule: Q01DX Z (sc), vehicle: other
  T/C: 177 % of control
dose: 160.0 mg/kg/injection, schedule: Q01DX009 (sc), vehicle: saline with Tween-80
  T/C: 89 % of control
dose: 180.0 mg/kg/injection, schedule: Q01DX001 (sc), vehicle: other
  T/C: 122 % of control
dose: 180.0 mg/kg/injection, schedule: Q01DX Z (sc), vehicle: methylcellulose (MC)
  T/C: 118 % of control
dose: 180.0 mg/kg/injection, schedule: Q02DX Z (sc), vehicle: other
  T/C: 172 % of control
dose: 180.0 mg/kg/injection, schedule: Q07DX Z (sc), vehicle: other
  T/C: 122 % of control
dose: 180.0 mg/kg/injection, schedule: Q## X Z (sc), vehicle: other
  T/C: 122 % of control
dose: 216.0 mg/kg/injection, schedule: Q01DX Z (sc), vehicle: other
  T/C: 166 % of control
dose: 300.0 mg/kg/injection, schedule: Q01DX001 (sc), vehicle: other
  T/C: 111 % of control
dose: 300.0 mg/kg/injection, schedule: Q01DX Z (sc), vehicle: other
  T/C: 150 % of control

## Cc1ccc(NCCN(C)C)c2c(=O)c3cc(O)ccc3sc12
[1]
  T/C: 110 % of control and 112 % of control
[2]
  T/C: 112 % of control and 117 % of control
[3]
  T/C: 165 % of control

## N#Cc1c(-c2ccc(F)cc2)c(-c2ccc(F)cc2)nn(CCO)c1=O
dose: 108.0 mg/kg/injection, schedule: Q01DX005 (ip), vehicle: distilled water + Tween-80 + alcohol
  T/C: 109 % of control
dose: 180.0 mg/kg/injection, schedule: Q01DX005 (ip), vehicle: distilled water + Tween-80 + alcohol
  T/C: 113 % of control
dose: 300.0 mg/kg/injection, schedule: Q01DX005 (ip), vehicle: distilled water + Tween-80 + alcohol
  T/C: 113 % of control
dose: 833.0 mg/kg/injection, schedule: Q01DX005 (ip), vehicle: distilled water + Tween-80 + alcohol
  T/C: 178 % of control

## CC(=O)NNC(=O)c1ccccn1
[1]
  T/C: 102 % of control
[2]
  T/C: 102 % of control
dose: 25.0 mg/kg/injection, schedule: Q01DX009 (ip), vehicle: saline
  T/C: 102 % of control
dose: 25.0 mg/kg/injection, schedule: Q01DX009 (sc), vehicle: saline
  T/C: 98 % of control
[3]
  T/C: 105 % of control
dose: 50.0 mg/kg/injection, schedule: Q01DX009 (ip), vehicle: saline
  T/C: 104 % of control
dose: 50.0 mg/kg/injection, schedule: Q01DX009 (sc), vehicle: saline
  T/C: 105 % of control and 109 % of control
dose: 100.0 mg/kg/injection, schedule: Q01DX009 (ip), vehicle: Klucel (hydroxypropylcellulose) (HPC)
  T/C: 113 % of control
dose: 100.0 mg/kg/injection, schedule: Q01DX009 (ip), vehicle: saline
  T/C: 106 % of control
dose: 100.0 mg/kg/injection, schedule: Q01DX009 (sc), vehicle: saline
  T/C: 110 % of control and 113 % of control
dose: 200.0 mg/kg/injection, schedule: Q01DX009 (ip), vehicle: Klucel (hydroxypropylcellulose) (HPC)
  T/C: 112 % of control
dose: 200.0 mg/kg/injection, schedule: Q01DX009 (ip), vehicle: saline
  T/C: 114 % of control
dose: 200.0 mg/kg/injection, schedule: Q01DX009 (sc), vehicle: saline
  T/C: 111 % of control and 119 % of control

## CC[C@H](c1ccc(O)cc1)[C@@H](CC)c1ccc(O)cc1
dose: 130.0 mg/kg/injection, schedule: Q01DX Z (sc), vehicle: methylcellulose (MC)
  T/C: 111 % of control
